Like-named read-outs stand apart in the source and are kept apart here.
Columns and labels:
[1] = people with RA; cited from earlier work
[2] = cited from earlier work
opioid receptor = settings: intra-VTA infusions; cited from earlier work
lipolysis = settings: p <0.01; cited from earlier work
[3] = nucleus accumbens microinjections; cited from earlier work
[4] = Chromium picolinate vs placebo in obese subjects genotyped for DRD2 (scale weight, DEXA body fat); format: in vivo, human; settings: for change in fat weight, body weight, percent change in weight, body weight change in kg: A2/A2 carriers; for any parameter of weight change: subjects possessing a DRD2 A1 allele (A1/A1 or A1/A2)
Experimental: A Case Study: Chromium and Dopamine Genes. While there is still controversy regarding the effects of chromium salts (picolinate and nicotinate) on body composition and weight loss in general, recent work seems to support the positive change in body composition in humans. The inventors embarked on a study with chromium picolinate to test out the principles of nutrigenomics. In this study they genotyped obese subjects for the dopamine D2 receptors gene (DRD2). The subjects were assessed for scale weight and for percent body fat. The subjects were divided into matched placebo and chromium picolinate (CrP) groups. […] Moreover, the inventors propose for the first time that mixed effects now observed with CrP administration in terms of body composition, may be resolved by typing the patient via DRD2 genotyping prior to treatment with chromium salts.
To reiterate, Blum and associates found similar evidence with chromium picolinate, for the role of genes in physiological response with nutritional supplements. While there still is controversy regarding the effects of chromium salts (picolinate and nicotinate) on body composition and weight loss in general, recent unpublished work seems to support the positive change in body composition in humans. In consideration of the above study, Chen and Blum and others decided to genotype 130 overweight subjects for the dopamine D2 receptor gene. The subjects were assessed for scale weight and for percent body fat using dual energy X-ray absorptionmetry (DEXA R). The subjects were divided into matched placebo and chromium picolinate groups (400 μg. per day). The sample was separated into two independent groups; those with either an A1/A1 or A1/A2 allele and those with only the A2/A2 pattern. […] Moreover, we propose for the first time that mixed effects now observed with chromium picolinate in terms of body composition, may be resolved by typing the patient via dopamine D2 receptor genotyping prior to treatment with not only chromium salts, but with other nutritional supplements as well.
In terms of weight loss ingredients one nutrient Chromium Picolinate, one of the most widely used ingredient in the weight management field, pharmacogenomically responds differentially based on the DRD2genotype. Dr. Blum is current in revision on a publication detailing these findings. Here are some details on the abstract: • Thomas J H Chen, Kenneth Blum, * Gilbert Kaats, E. R. Braverman. Arthur Eisenberg, M. Sherman. K. Davis, D E Comings, R. Wood, D. Pullin. CHROMIUM PICOLINATE A PUTATIVE ANTI-OBESITY NUTRIENT INDUCES CHANGES IN BODY COMPOSITION AS A FUNCTION OF THE Taq1 DOPAMINE D2 RECEPTOR POLYMORPHISMS. International J. Of Eating Disorders (in revision). • Objective: There is still controversy regarding the effects of chromium salts (picolinate and nicotinate) on body composition and weight loss in humans. Thus, we decided to test the hypothesis that typing the obese patients by genotyping the DRD2 gene prior to treatment with Chromium Picolinate (CrP) would result in a differential treatment outcome. • Methods: We genotyped obese subjects for the dopamine D2 receptors gene (DRD2) utilizing standard PCR techniques. The subjects were assessed for scale weight and for percent body fat using dual energy X-ray absorptiometry (DEXAR). The subjects were divided into matched placebo and CrP groups (400 ug. per day) accordingly. The sample was separated into two independent groups. Those with either an A1/A1 or A1/A2 allele or those with only the A2/A2 allelic pattern.

[5] = cited from earlier work; remark: listed apart in the source
[6] = after six months; cited from earlier work
[7] = 200 and 400 mcg, cited from earlier work
[8] = 400 mcg, cited from earlier work

CCCCC/C=C\C/C=C\C/C=C\CCCCC(=O)O [GLA, GAMMA-LINOLENIC ACID]
RA symptoms [1]: significant improvements

O=C1CC[C@@]2(O)[C@H]3Cc4ccc(O)c5c4[C@@]2(CCN3CC2CC2)[C@H]1O5 [Naltrexone]
body weight ([2]; anorexic patients): weight gain | binge-eating ([2]; bulimics): some reduction | stress-induced activation of dopamine metabolism in the NAcc and prefrontal cortex (opioid receptor): prevent

C[C@]12CCC(=O)C=C1CC[C@@H]1[C@@H]2[C@@H](O)C[C@@]2(C)[C@H]1CC[C@]2(O)C(=O)CO [cortisol]
basal rate of lipolysis (lipolysis): significantly reduced

C[C@H](NC(=O)[C@@H](CC(=O)NO)Cc1ccccc1)C(=O)O [kelatrophan]
intracranial self-stimulation [3]: reduced

Chromium Picolinate
change in fat weight, body weight, percent change in weight, body weight change in kg [4]: changes in kgms were all significant in A2/A2 group, | change in fat weight, body weight, percent change in weight, body weight change in kg ([4]; listed as CrP): significant in A2/A2 group and non | change in fat weight, body weight, percent change in weight, body weight change in kg ([4]; listed as chromium picolinate): all significant | any parameter of weight change [4]: no significance was found | any parameter of weight change ([4]; listed as CRP): do not respond | any parameter of weight change ([4]; listed as CrP): no significance was found | insulin response to an oral glucose load ([5]; exercise training combined with supplementation): lowered insulin response to an oral glucose load. | body weight ([5]; supplementation alone): CrP supplementation resulted in significant weight gain, | lean body mass [6]: After six months the CrP group had an increase in lean | changes in Body Mass composition indicies compared with placebo [7]: 200 and 400 mcg of CrP brought about significant | changes in Body Mass composition indicies compared with placebo ([7]; listed as chromium picolinate): body composition improvement, loss of body fat, gain in nonfat mass | reduction in body fat vs placebo ([8]; p < 0.001): (p < 0.001) and body fat (p < 0.004), had a greater | weight lost vs placebo ([8]; p < 0.001): 400 mcg CrP group lost significantly more weight | body composition ([8]; p < 0.004): reduction in body fat (p < 0.001), significantly improve

Reference: patent publication US20060062859A1, “Composition and method to optimize and customize nutritional supplement formulations by measuring genetic and metabolomic contributing factors to disease diagnosis, stratification, prognosis, metabolism, and therapeutic outcomes” (priority 2004, published 2006)
